Measurements taken from the supplement of paper PMC12490022.
± gives the uncertainty stated by the source.

Tested on: ozone
Assay: apparent second-order rate constant for reaction with ozone (kapp,O3) (M-1 s-1); higher = faster oxidation by ozone
Settings: pH 7; temperature: 22 C; OH radical scavenger: tBuOH 80 mM; phosphate 4 mM
Description: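 Apparent second-order rate constants for reaction with ozone at pH 7 were determined by multicompound competition kinetics. Mixtures of targets and competitors (10 ug/L each) were ozonated in 4 mM phosphate buffer, pH 7, with 80 mM tBuOH as OH-radical scavenger, at 22 ± 1 °C. Peak-area abatement was measured by HPLC-HRMS/MS and k was derived from ln-ln slopes against competitors with known k (R2 > 0.9, >= 10 points, slope 0.1-10). Experiments were run in triplicate on 3 days; the value is the mean over valid competitors ± SD.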

Row | Structure (SMILES) | apparent second-order rate constant
1 | COC(=O)C1C(OC(=O)c2ccccc2)CC2CCC1[N+]2(C)[O-] (configuration not stated) [Cocaine-N-oxide] | < 0.401
2 | COC(=O)C1C(OC(=O)c2ccccc2)CC2CCC1N2C (configuration not stated) [Cocaine] | 3020 ± 260
3 | COc1ccc2c3c1OC1C(O)C=CC4C(C2)N(C)CCC341 (configuration not stated) [Codeine] | 1.03e+06 ± 88000
4 | CC12CCC(=O)C=C1CCC1C2C(=O)CC2(C)C1CCC2(O)C(=O)CO (configuration not stated) [Cortisone] | 436 ± 22
5 | CN1C(=O)CCC1c1cccnc1 (configuration not stated) [Cotinine] | 2.9 ± 0.3
6 | C#CCN(C)C(C)Cc1ccccc1 (configuration not stated) [Deprenyl] | 930000 ± 81000
7 | NCC(O)COc1ccc(CC(N)=O)cc1 (configuration not stated) [Desisopropylatenolol] | 134 ± 7.4
8 | COc1ccc2c(c1)C13CCCCC1C(C2)N(C)CC3 (configuration not stated) [Dextromethorphan] | 5580 ± 96
9 | CN1CCC23CCCCC2C1Cc1ccc(O)cc13 (configuration not stated) [Dextrorphan] | 1.87e+06 ± 170000
10 | O=C(O)Cc1ccccc1Nc1c(Cl)cccc1Cl [Diclofenac] | 830000 ± 71000
11 | CC(NC(C)(C)C)C(O)c1cccc(Cl)c1 (configuration not stated) [Dihydrobupropion] | 162 ± 8.9
12 | COc1ccc(C2Sc3ccccc3N(CCN(C)C)C(=O)C2OC(C)=O)cc1 (configuration not stated) [Diltiazem] | 735000 ± 67000
13 | Nc1nc(=O)n(C2CSC(CO)O2)cc1F (configuration not stated) [Emtricitabine] | 79000 ± 70000
14 | CNC(C)C(O)c1ccccc1 (configuration not stated) [Ephedrine] | 1720 ± 150
15 | CCCCc1ncc(C=C(Cc2cccs2)C(=O)O)n1Cc1ccc(C(=O)O)cc1 [Eprosartan] | 1.57e+06 ± 140000
16 | CC(C)OC(=O)C(C)(C)Oc1ccc(C(=O)c2ccc(Cl)cc2)cc1 [Fenofibrate] | 1.27 ± 0.17
17 | CC(C)(Oc1ccc(C(=O)c2ccc(Cl)cc2)cc1)C(=O)O [Fenofibric acid] | 2.8 ± 0.3

More lines, now with the values ahead:

Row | apparent second-order rate constant | Structure (SMILES)
18 | 335000 ± 28000 | COC(=O)C(c1ccccc1Cl)N1CCc2sccc2C1 (configuration not stated) [Clopidogrel]
19 | 55 ± 2.9 | CCOC(=O)c1c(COCCN)nc(C)c(C(=O)OC)c1-c1ccccc1Cl [Dehydroamlodipine]
20 | 2.25e+06 ± 220000 | Oc1ccc(C(c2ccc(O)cc2)c2ccccn2)cc1 [Desacetylbisacodyl]
21 | 668000 ± 57000 | COc1ccc([C@@H]2Sc3ccccc3N(CCN(C)C)C(=O)[C@@H]2O)cc1 [Desacetyldiltiazem]
22 | 1960 ± 160 | Clc1ccc2c(c1)CCc1cccnc1C2=C1CCNCC1 [Desloratadine]
23 | 1.74 ± 0.19 | CC(=O)Nc1c(I)c(C(=O)NCC(O)CO)c(I)c(C(=O)N(C)CC(O)CO)c1I (configuration not stated) [Desmethoxyiopromide]
24 | 239000 ± 8000 | CCC1OC(=O)C(C)C(O)C(C)C(OC2OC(C)CC(N(C)C)C2O)C(C)(O)CC(C)CN(C)C(C)C(O)C1(C)O (configuration not stated) [Desosaminylazithromycin]
25 | 230 ± 30 | CC(=O)Nc1c(I)c(NC(C)=O)c(I)c(C(=O)O)c1I [Diatrizoate]
26 | 815000 ± 110000 | O=C(O)c1ccccc1Nc1c(Cl)cccc1Cl [Diclofenac carboxylic acid]
27 | 4.5 ± 0.5 | O=c1nc[nH]c2c1ncn2C1CCC(CO)O1 (configuration not stated) [Didanosine]
28 | < 0.401 | CC(=O)N(C)N(C(=O)C(=O)N(C)C)c1ccccc1 [Dioxypyramidon (AMDOPH)]
29 | 3.6 ± 0.4 | C[N+](C)(CCOC(c1ccccc1)c1ccccc1)C1OC(C(=O)[O-])C(O)C(O)C1O (configuration not stated) [Diphenhydramine-N-glucuronide]
30 | 5500 ± 140 | CN(C)CCOC(c1ccccc1)c1ccccc1 [Diphenhydramine]
31 | 1.8e+07 ± 4e+06 | O=C1CC(c2ccc(O)c(O)c2)Oc2cc(O)cc(O)c21 (configuration not stated) [Eriodictyol]
32 | 11.9 ± 1.3 | CC(C)(C(=O)O)c1ccc(C(O)CCC[N+]2([O-])CCC(C(O)(c3ccccc3)c3ccccc3)CC2)cc1 (configuration not stated) [Fexofenadine-N-oxide]
